The source of these data is patent publication US12509449B2, “Anthelmintic compounds comprising a quinoline structure” (Intervet Inc., priority 2019, dated 2025).

For one assay, the system named is Ascaridia galli L3. As to the kind of experiment: In vitro assay Ascaridia galli larval stage 3, minimum effective concentration. The assay is classed as cell-based. The following applies: 20 larvae per well, microscopic examination, read-out: MEC (minimum effective concentration) against Ascaridia galli L3. From the text: (§1) […] galli (intestinal roundworm of chicken), larval stage 3 (“L3”); and Oesophagostumum dentatum (nodular worm of swine), larval stages 3 and 4 (respectively “L3” and “L4”) where suspended in a nutrient medium and distributed to 96 well plates with 20 larvae per well. The wells were spiked DMSO solutions of the compounds with declining concentration.

The test system of assay [1] is Oesophagostumum dentatum L3. As to the kind of experiment: In vitro assay Oesophagostumum dentatum larval stage 3, minimum effective concentration. Particulars: 20 larvae per well, microscopic examination; read-out: MEC (minimum effective concentration) against Oesophagostumum dentatum L3. Format: cell-based.
Text: as §1

In assay [2] the target is T1, human Maxi K channel (BK channel), KCNMA1 (KCa1.1) and beta1 (KCNMB1) subunits (Homo sapiens, UniProt Q12791).
T1 construct: expressed in transfected cells; host or cells: CHO K1
T1 sequence (Q12791 1-1178 isoform Q12791-5): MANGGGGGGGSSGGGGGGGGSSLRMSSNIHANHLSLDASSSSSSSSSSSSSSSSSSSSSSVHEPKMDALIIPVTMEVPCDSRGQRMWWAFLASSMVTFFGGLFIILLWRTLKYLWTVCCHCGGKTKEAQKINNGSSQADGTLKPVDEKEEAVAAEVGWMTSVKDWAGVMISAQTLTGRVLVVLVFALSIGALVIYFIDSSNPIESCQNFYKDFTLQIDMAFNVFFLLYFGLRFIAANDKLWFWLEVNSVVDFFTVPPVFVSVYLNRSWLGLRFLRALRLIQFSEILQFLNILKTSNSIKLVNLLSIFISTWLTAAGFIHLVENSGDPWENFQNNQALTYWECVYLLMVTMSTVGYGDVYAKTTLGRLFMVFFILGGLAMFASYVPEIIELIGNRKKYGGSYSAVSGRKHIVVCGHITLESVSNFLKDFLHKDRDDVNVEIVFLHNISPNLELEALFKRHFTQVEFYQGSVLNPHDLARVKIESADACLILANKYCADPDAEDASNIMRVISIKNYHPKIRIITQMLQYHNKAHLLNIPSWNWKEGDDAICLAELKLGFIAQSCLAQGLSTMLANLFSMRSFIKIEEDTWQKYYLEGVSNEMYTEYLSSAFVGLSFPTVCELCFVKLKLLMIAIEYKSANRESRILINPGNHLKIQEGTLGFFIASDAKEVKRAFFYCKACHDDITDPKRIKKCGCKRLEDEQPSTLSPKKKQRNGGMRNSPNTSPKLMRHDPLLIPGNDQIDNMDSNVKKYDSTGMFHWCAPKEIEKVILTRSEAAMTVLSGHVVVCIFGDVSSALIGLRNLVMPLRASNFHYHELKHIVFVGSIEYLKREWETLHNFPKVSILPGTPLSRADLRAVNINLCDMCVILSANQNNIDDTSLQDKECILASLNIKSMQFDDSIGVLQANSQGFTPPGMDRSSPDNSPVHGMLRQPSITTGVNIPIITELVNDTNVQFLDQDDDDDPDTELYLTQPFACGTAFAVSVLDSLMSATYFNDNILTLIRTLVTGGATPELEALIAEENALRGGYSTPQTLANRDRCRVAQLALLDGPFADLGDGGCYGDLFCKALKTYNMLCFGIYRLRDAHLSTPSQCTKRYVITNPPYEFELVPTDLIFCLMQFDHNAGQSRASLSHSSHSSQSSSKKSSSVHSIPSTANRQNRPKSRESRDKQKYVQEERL
T1 sequence (Q16558 whole entry partner): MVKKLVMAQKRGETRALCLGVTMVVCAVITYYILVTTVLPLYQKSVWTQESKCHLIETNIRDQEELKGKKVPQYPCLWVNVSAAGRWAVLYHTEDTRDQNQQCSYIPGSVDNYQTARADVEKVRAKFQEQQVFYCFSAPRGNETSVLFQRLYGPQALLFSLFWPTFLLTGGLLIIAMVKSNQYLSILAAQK
Description: Agonistic activity at the human Maxi K channel (BK channel), membrane potential (FLIPR) in transfected CHO K1 cells. Format: cell-based. The following applies: membrane potential dye, 70 mM KCl. The source says:
A CHO K1 cell line was stably transfected with the KCNMA1 (KCa1.1, U11058) and beta1 (KCNMB1) subunits of the human Maxi K channel (Ponte et al, Molecular Pharmacology 2012, 81(4), 567-577).
The complete measurement takes 150 s.

For assay [3], the target named is Caenorhabditis elegans slo-1a (Caenorhabditis elegans, UniProt Q95V25). Description: Agonistic activity at C. elegans Slo-1a, membrane potential (FLIPR) in transfected CHO K1 cells. Particulars: EC50 agonistic activity at C. elegans Slo-1a, membrane potential dye, 70 mM KCl.
Chain of Caenorhabditis elegans slo-1a (Q95V25 whole entry): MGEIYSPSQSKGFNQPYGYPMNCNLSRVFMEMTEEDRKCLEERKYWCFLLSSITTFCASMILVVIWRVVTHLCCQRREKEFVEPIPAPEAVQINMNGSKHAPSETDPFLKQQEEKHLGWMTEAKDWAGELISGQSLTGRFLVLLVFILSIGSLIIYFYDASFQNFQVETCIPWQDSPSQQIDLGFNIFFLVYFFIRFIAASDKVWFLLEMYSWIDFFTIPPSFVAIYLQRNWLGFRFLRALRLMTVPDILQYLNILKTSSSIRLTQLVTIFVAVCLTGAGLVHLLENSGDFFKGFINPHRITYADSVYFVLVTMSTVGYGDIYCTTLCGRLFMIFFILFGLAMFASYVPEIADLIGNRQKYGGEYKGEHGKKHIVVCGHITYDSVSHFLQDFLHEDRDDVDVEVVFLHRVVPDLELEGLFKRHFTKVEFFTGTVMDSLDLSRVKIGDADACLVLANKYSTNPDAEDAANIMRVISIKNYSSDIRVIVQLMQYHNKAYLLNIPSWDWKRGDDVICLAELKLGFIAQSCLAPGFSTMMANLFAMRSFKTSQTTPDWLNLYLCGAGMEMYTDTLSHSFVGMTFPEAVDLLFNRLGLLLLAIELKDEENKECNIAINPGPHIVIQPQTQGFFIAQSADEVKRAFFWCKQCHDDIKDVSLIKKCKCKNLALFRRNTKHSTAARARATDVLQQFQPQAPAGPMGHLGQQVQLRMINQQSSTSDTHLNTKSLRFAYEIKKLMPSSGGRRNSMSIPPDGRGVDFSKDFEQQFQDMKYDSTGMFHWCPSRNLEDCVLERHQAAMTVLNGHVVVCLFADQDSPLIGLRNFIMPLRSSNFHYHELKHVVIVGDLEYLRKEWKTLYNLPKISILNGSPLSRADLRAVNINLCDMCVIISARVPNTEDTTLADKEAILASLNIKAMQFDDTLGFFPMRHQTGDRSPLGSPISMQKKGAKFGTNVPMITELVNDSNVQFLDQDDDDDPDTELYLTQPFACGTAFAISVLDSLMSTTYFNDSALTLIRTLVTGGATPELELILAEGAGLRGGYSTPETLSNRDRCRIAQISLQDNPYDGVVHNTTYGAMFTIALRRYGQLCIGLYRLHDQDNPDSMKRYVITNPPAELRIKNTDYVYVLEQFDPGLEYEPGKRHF
Description: A CHO K1 cell line stably transfected with the Caenorhabditis elegans slo-1a (accession no Y51A2D.19a) was established. Cells were seeded in microtiter plates (black 384-well MTP, clear bottom) in a concentration of 10,000 cells/well in 25 μl medium and cultured for 20 to 24 hours at 37° C. and 5% CO2. The cell medium was removed, and the cells washed with Tyrode's solution. 1 of FMP-dye Blue-Tyrode's was added to each well and incubated at room temperature for 30 min.
For the membrane potential measurements, the prepared cell plate and substance plate were placed in the FLIPR Tetra (Molecular Devices). The baseline measurement of the fluorescence was stared for 20 sec (Exc. 510-545 nm, Emm. 565-625 nm). The cells were depolarized by addition of 25p of the diluted test compounds (final assay concentration of the KCl-Tyrode: 70 mM KCl, 2 mM CaCl2), 1 mM MgCl2, 0.8 mM NaH2PO4, 5 mM Glucose, 28 mM Hepes, pH 7.4, including the voltage sensitive dye). The complete measurement takes 150 s.
EC50 values were determined in triplicate utilizing compound dilution series. The data were determined at least in two independent tests. The data were proceeded by using the ActivityBase XE Runner software (IDBS) for curve fitting and calculation of the half-maximal effective concentration.
In a further assay the test system is Haemonchus contortus. As to the kind of experiment: In vitro assay Haemonchus contortus exsheathed L3 larvae motility. Format: cell-based. The following applies: 168 h, incubation 7 days, automated microscopy, read-out: ED50 against Haemonchus contortus (motility reduced by 50%). As for the experimental part: Solutions of compounds with declining concentrations in DMSO were prepared, diluted with nutrient medium and distributed to 96 well microtiterplates. […]3 larvae of Haemonchus contortus were incubated for 20 min at 37° C. in a water bath, separated by centrifugation and added to the wells with 300 Larvae/well. After incubation for 7 days motility was assessed by automated microscopy. Ivermectin was used as positive control, DMSO as negative control and ED50 values were calculated which represent the concentration for an individual compound that reduces motility by 50% with respect to the […].

The next assay concerns Dirofilaria immitis L1. Description: In vitro assay Dirofilaria immitis L1 (microfilaria) motility. The assay is classed as cell-based. Particulars: 72 h, incubation 3 days, read-out: EC50 Dirofilaria immitis L1, reduction in motility. How it is done:
Approximately 500 D. immitis microfilaria were added to a microtiter plate containing a nutrient medium and the test compound in DMSO at varying concentrations. After incubation for 3 days, activity was evaluated as reduction in motility as compared to DMSO as negative control. Compounds were tested in duplicates. Based on the concentration response curves EC50 values were calculated.

Assay [4] concerns Oesophagostumum dentatum L4. Description: In vitro assay Oesophagostumum dentatum larval stage 4, minimum effective concentration. The following applies: 20 larvae per well, microscopic examination; read-out: MEC (minimum effective concentration) against Oesophagostumum dentatum L4. The assay is classed as cell-based.
Text: as §1

The subject of assay [5] is Acanthocheilonema viteae L1. Description: In vitro assay Acanthocheilonema viteae L1 (microfilaria) motility. The assay is classed as cell-based. The following applies: 72 h, incubation 3 days, read-out: EC50 Acanthocheilonema viteae L1, reduction in motility. As for the experimental part: Approximately 500 A. viteae microfilaria were added to a microtiter plate containing a nutrient medium and the test compound in DMSO at varying concentrations. After incubation for 3 days, activity was evaluated as reduction in motility as compared to DMSO as negative control. Compounds were tested in duplicates. Based on the concentration response curves EC50 values were calculated.

SMILES strings stand for the structures. A value given as a limit tells only on which side of the number the result lay.

As for `CN(C)c1c(NC(=O)Cc2ccccc2)cnc2c(-c3cccc(Cl)c3Cl)cccc12` [Compound 1], the minimal effective concentration (in the assay on Ascaridia galli L3; in assay [1]) was not above 50 µM each time. Further, the EC50 in assay [2] was more than 30 µM; in assay [3], less than 10 µM.
Take `O=C(Nc1cnc2c(-c3cc(Cl)cc(Cl)c3)cccc2c1N1CCOCC1)C1CCCc2ccccc21` (stereo not shown) [Compound 8]: the EC50 in the assay with Haemonchus contortus is less than 50 µM; in assay [2], 10 to 30 µM; in assay [3], less than 1 µM.
As for `COc1c(NC(=O)C(C)c2ccccc2)cnc2c(-c3cccc(Cl)c3Cl)cccc12` (stereo not shown) [Compound 11], the EC50 in the assay on Dirofilaria immitis L1 is less than 10 µM; in assay [2], more than 30 µM.
Regarding `O=C(Nc1cnc2c(-c3cccc(Cl)c3Cl)cccc2c1N1CCCC1)C1CCc2ccccc21` (stereo not shown) [Compound 18], the minimal effective concentration (in the assay with Ascaridia galli L3; in assay [4]) was not above 50 µM in each case. Also, the EC50 in assay [2] was more than 30 µM.
As to `CC(C(=O)Nc1cnc2c(-c3cccc(Cl)c3Cl)cccc2c1N(C)C)c1ccccc1` (stereo not shown) [Compound 24], the minimal effective concentration (in the assay on Ascaridia galli L3; in assay [1]) was not above 50 µM in each case. For the same molecule, the EC50 in the assay with Haemonchus contortus is less than 50 µM; in assay [2] it was more than 30 µM; in assay [3], less than 10 µM.
Consider `CN(C)c1c(NC(=O)c2cccc3ccccc23)cnc2c(-c3cccc(Cl)c3Cl)cccc12` [Compound 31], for which the results for the EC50 (in the assay on Haemonchus contortus; in assay [2]; in assay [3]) were less than 50 µM, more than 30 µM and less than 1 µM, respectively.
Turning to `CC(C)Oc1c(NC(=O)C2CCOc3ccccc32)cnc2c(-c3cccc(Cl)c3Cl)cccc12` (stereo not shown) [Compound 32], the minimal effective concentration (with Ascaridia galli L3; in assay [1]) was not above 50 µM in each case. This molecule also returned an EC50 in assay [2] of more than 30 µM.
`O=C(Nc1cnc2c(-c3cccc(Cl)c3Cl)cccc2c1N1CCC(O)C1)C1CCOc2ccccc21` (stereo not shown) [Compound 37]: the minimal effective concentration (with Ascaridia galli L3; in assay [4]) was not above 50 µM each time. For the same molecule, the EC50 in assay [2] is 10 to 30 µM; in assay [3] it was less than 1 µM.
With `CN(C)c1c(NC(=O)C2CCOc3ccccc32)cnc2c(-c3cccc(Cl)c3F)cccc12` (stereo not shown) [Compound 42], the values for the EC50 (in the assay with Haemonchus contortus; in assay [2]; in assay [3]) were less than 50 µM, more than 30 µM and less than 1 µM, respectively.
As for `O=C(Nc1cnc2c(-c3cccc(Cl)c3Cl)cccc2c1N1CCC(O)C1)C1CCc2ccccc21` (stereo not shown) [Compound 45], the minimal effective concentration (in the assay on Ascaridia galli L3; in assay [4]) was not above 50 µM in each case. Moreover, the EC50 in assay [2] was 10 to 30 µM; in assay [3], less than 1 µM.
As to `CN(C)c1cccc(CC(=O)Nc2cnc3c(-c4cccc(Cl)c4Cl)cccc3c2N(C)C)c1` [Compound 49], the minimal effective concentration in assay [4] was not above 50 µM. In addition, the EC50 is more than 30 µM in assay [2] and less than 10 µM in assay [3].
Consider `O=C(Nc1cnc2c(-c3cc(Cl)cc(Cl)c3)cccc2c1O)C1CCCc2ccccc21` (stereo not shown) [Compound 63], for which the EC50 with Dirofilaria immitis L1 was less than 10 µM; in assay [2] it was more than 30 µM.
For the molecule `CCOc1c(NC(=O)C2CCCc3ccccc32)cnc2c(-c3cc(Cl)cc(Cl)c3)cccc12` (stereo not shown) [Compound 75], the minimal effective concentration (in the assay on Ascaridia galli L3; in assay [1]) was not above 50 µM throughout. Further, the EC50 in assay [2] was more than 30 µM; in assay [3] it was less than 1 µM.
With `CCOc1c(NC(=O)C2CCc3ccccc32)cnc2c(-c3cc(Cl)cc(Cl)c3)cccc12` (stereo not shown) [Compound 79], the minimal effective concentration (in the assay on Ascaridia galli L3; in assay [1]) was not above 50 µM throughout. The values for the EC50 (in the assay with Haemonchus contortus; in assay [2]; in assay [3]) were less than 50 µM, more than 30 µM and less than 10 µM, respectively.
On to `CCNc1c(NC(=O)C2CCOc3ccccc32)cnc2c(-c3cccc(Cl)c3Cl)cccc12` (stereo not shown) [Compound 86], for which the minimal effective concentration in the assay on Ascaridia galli L3 is not above 50 µM. In addition, the EC50 in the assay on Haemonchus contortus was less than 50 µM; in assay [2], more than 30 µM.
As to `O=C(Nc1cnc2c(-c3cccc(Cl)c3Cl)cccc2c1NCCO)C1CCOc2ccccc21` (stereo not shown) [Compound 90], the minimal effective concentration (in the assay with Ascaridia galli L3; in assay [1]) was not above 50 µM each time. In addition, the results for the EC50 in assay [2] and in assay [3] were more than 30 µM and less than 10 µM, respectively.
With `CN(CCO)c1c(NC(=O)C2CCOc3ccccc32)cnc2c(-c3cccc(Cl)c3Cl)cccc12` (stereo not shown) [Compound 92], in assay [4], the minimal effective concentration was not above 50 µM. Besides, the EC50 in assay [2] was more than 30 µM; in assay [3], less than 10 µM.
On to `CCN(C)c1c(NC(=O)C2CCCc3ccccc32)cnc2c(-c3cccc(Cl)c3Cl)cccc12` (stereo not shown) [Compound 98], for which the EC50 in assay [5] was less than 10 µM; in assay [2], more than 30 µM.
As to `O=C(Nc1cnc2c(-c3cc(Cl)cc(Cl)c3)c(F)ccc2c1N1CCOCC1)C1CCCc2ccccc21` (stereo not shown) [Compound 116], in the assay with Ascaridia galli L3, the minimal effective concentration was not above 50 µM. Moreover, the EC50 in the assay on Haemonchus contortus was less than 50 µM; in assay [2] it was more than 30 µM; in assay [3], less than 1 µM.
Regarding `CC(C)Oc1c(NC(=O)C2CCCc3ccccc32)cnc2c(-c3cccc(Cl)c3Cl)c(F)ccc12` (stereo not shown) [Compound 122], the minimal effective concentration (with Ascaridia galli L3; in assay [1]) was not above 50 µM in each case. In assay [2], the EC50 was more than 30 µM.
For `CC(C)Oc1c(NC(=O)C2CCOc3ccccc32)cnc2c(-c3cc(Cl)cc(Cl)c3)c(F)ccc12` (stereo not shown) [Compound 127], the minimal effective concentration (in the assay on Ascaridia galli L3; in assay [1]) was not above 50 µM in each case. In addition, the EC50 is less than 10 µM in assay [5] and more than 30 µM in assay [2].
As to `CC(C)Oc1c(NC(=O)C2CCc3ccccc32)cnc2c(-c3cccc(Cl)c3Cl)c(F)ccc12` (stereo not shown) [Compound 142], the minimal effective concentration (in the assay on Ascaridia galli L3; in assay [1]) was not above 50 µM in each case. Also, in assay [2], the EC50 was more than 30 µM.
In the case of `CN(C)c1c(NC(=O)c2cccc3ccccc23)cnc2c(-c3cc(Cl)cc(Cl)c3)c(F)ccc12` [Compound 145], the EC50 with Haemonchus contortus was less than 50 µM; in assay [2], more than 30 µM; in assay [3] it was less than 1 µM.
For the molecule `CC(C)Oc1c(NC(=O)c2cccc3ccccc23)cnc2c(-c3cc(Cl)cc(Cl)c3)c(F)ccc12` [Compound 147], in assay [1], the minimal effective concentration is not above 50 µM. Also, the EC50 in assay [5] was less than 10 µM; in assay [2], more than 30 µM.
Turning to `CN(C)c1c(NC(=O)[C@H]2CCCc3ccccc32)cnc2c(-c3cc(Cl)cc(Cl)c3)cccc12` [Compound 156], the EC50 was less than 50 µM in the assay with Haemonchus contortus, more than 30 µM in assay [2] and less than 1 µM in assay [3].
As for `CN(C(=O)C1CCOc2ccccc21)c1cnc2c(-c3cccc(Cl)c3Cl)cccc2c1N1CCOCC1` (stereo not shown) [Compound 158], the minimal effective concentration in assay [1] and in assay [4] was not above 50 µM throughout. In assay [2], this molecule yielded an EC50 of more than 30 µM.
`CCN(C(=O)C1CCOc2ccccc21)c1cnc2c(-c3cccc(Cl)c3Cl)cccc2c1N1CCOCC1` (stereo not shown) [Compound 159]: the minimal effective concentration in the assay on Ascaridia galli L3 is not above 50 µM. The EC50 in assay [5] was less than 10 µM; in assay [2], more than 30 µM.
`CCN(C(=O)C1CCOc2ccccc21)c1cnc2c(-c3cc(Cl)cc(Cl)c3)cccc2c1N(C)C` (stereo not shown) [Compound 162]: the minimal effective concentration (with Ascaridia galli L3; in assay [1]) was not above 50 µM throughout. Besides, the EC50 in assay [5] is less than 10 µM; in assay [2], more than 30 µM.
As to `CCN(C(=O)C1CCOc2ccccc21)c1cnc2c(-c3cc(Cl)cc(Cl)c3)cccc2c1N1CCOCC1` (stereo not shown) [Compound 163], the minimal effective concentration in assay [4] is not above 50 µM. In addition, the values for the EC50 in assay [5] and in assay [2] were less than 10 µM and more than 30 µM, respectively.
Turning to `Cc1c(NC(=O)C2CCCc3ccccc32)cnc2c(-c3cc(Cl)cc(Cl)c3)cccc12` (stereo not shown) [Compound 192], the minimal effective concentration in assay [4] is not above 50 µM. The EC50 in assay [2] was more than 30 µM; in assay [3] it was less than 10 µM.
Consider `C=C(C)c1c(NC(=O)C2CCc3ccccc32)cnc2c(-c3cccc(Cl)c3Cl)cccc12` (stereo not shown) [Compound 201], for which the minimal effective concentration (with Ascaridia galli L3; in assay [1]) was not above 50 µM each time. Also, the EC50 in assay [2] was more than 30 µM; in assay [3] it was less than 1 µM.
